How the values were obtained:
Assay type in all cases: in vivo
[1] = system: diamond-back moth (Plutella xylostella) (field-strain); test: Hatching of diamond-back moth eggs laid on dipped germinated Japanese radish (Test Example 3); conditions: 1.25 ppm (diluted 80,000 times with water); radish dipped 30 seconds before egg laying; hatching counted after 5 days; repeated twice; four grades
Description: Two pieces of germinated Japanese radish which had been sowed 5 or 6 days before were dipped for 30 seconds in the aqueous dilute solution. After air-drying for about 1 hour, these germinated radish were put in a cage wherein a large number of adult diamond-back moth (Plutella xylostella) (field-strain) of an age of 1-3 days after the emergence were released, and they were allowed to lay eggs. When the number of eggs per germinated radish reached 100 to 150, the radish were taken out of the cage and each two pieces thereof were put in a polyethylene cup of 5.5 cm in diameter. After 5 days, the number of hatching was counted to obtain percentage of hatching. The test was repeated twice.

[2] = system: common mosquito (Culex pipiens pallens); test: Inhibition of adult emergence of common mosquito larvae in aqueous dilute emulsion (Test Example 1); conditions: 3.5 ppm (emulsifiable concentrate diluted 28,600 times with water), 20 last-instar larvae in 100 ml, bred until emergence, repeated twice
Description: The emulsifiable concentrate of each of the following present compounds prepared according to Formulation Example 1 was diluted 28,600 times with water (corresponding to 3.5 ppm). And 100 ml of each aqueous dilute emulsion thus obtained were charged in a 180-ml polyethylene cup. Then 20 last-instar larvae of common mosquito (Culex pipiens pallens) were released therein. The larvae were bred on baits until emergence to obtain percentage of inhibition of adult emergence. The test was repeated twice.

[3] = system: tobacco cutworm (Spodoptera litura); test: Mortality of tobacco cutworm larvae on sprayed cabbage (Test Example 2); conditions: for mortality at 0.5 ppm: Spodoptera litura, 120 h; for Mortality (%): 0.5 ppm (diluted 200,000 times with water), 30 ml sprayed onto cabbage, 5 fourth-instar larvae, after 5 days, repeated three times
Description: The emulsifiable concentrate of each of the following present compounds and controls prepared according to Formulation Example 1 was diluted 200,000 times with water (corresponding to 0.5 ppm). And 30 ml of each aqueous dilute solution thus obtained were sprayed onto cabbage cultivated in a plastic cup on a turn table, which cabbage had been planted one month before. After air-drying, 5 fourth-instar larvae of tobacco cutworm (Spodoptera litura) were released thereon, and after 5 days, the dead and alive were counted for mortality. This test was repeated three times.

Row | Structure (SMILES) | Percentage of hatching [1] | inhibition at 3.5 ppm [2] [%] | mortality at 0.5 ppm [3] [%] | Mortality (%) [3] [%]
1 | O=C(NC(=O)c1c(F)cccc1F)Nc1ccc(OC(F)(F)C(F)OC(F)(F)F)cc1F (stereo not shown) [(11)] | A (A: 0%) | 100 | 100 | 
2 | O=C(NC(=O)c1c(F)cccc1F)Nc1ccc(OC(F)(F)C(F)OC(F)(F)C(F)(F)C(F)(F)F)cc1F (stereo not shown) [(9)] | A (A: 0%) | 100 | 100 | 
3 | O=C(NC(=O)c1c(F)cccc1F)Nc1ccc(OC(F)(F)C(F)(F)Br)cc1F [(1)] | A (A: 0%) | 100 | 100 | 
4 | O=C(NC(=O)c1ccccc1Cl)Nc1ccc(OC(F)(F)C(Cl)Cl)cc1F [(3)] | A (A: 0%) | 100 | 100 | 
5 | O=C(NC(=O)c1c(F)cccc1F)Nc1ccc(OC(F)(F)C(F)Cl)cc1F (stereo not shown) [(5)] | A (A: 0%) | 100 | 93 | 
6 | O=C(NC(=O)c1ccccc1Cl)Nc1ccc(OC(F)(F)C(F)C(F)(F)F)cc1F (stereo not shown) [(8)] | A (A: 0%) | 100 | 100 | 
7 | O=C(NC(=O)c1c(F)cccc1F)Nc1ccc(OC(F)(F)C(Br)Br)cc1F [(4)] | A (A: 0%) | 100 | 100 | 
8 | O=C(NC(=O)c1c(F)cccc1F)Nc1ccc(OC(F)(F)C(Cl)Cl)cc1F [(2)] | A (A: 0%) | 100 | 93 | 
9 | O=C(NC(=O)c1ccccc1Cl)Nc1ccc(OC(F)(F)C(F)OC(F)(F)F)cc1F (stereo not shown) [(12)] | A (A: 0%) | 100 | 100 | 
10 | O=C(NC(=O)c1ccccc1Cl)Nc1ccc(OC(F)(F)C(F)Cl)cc1F (stereo not shown) [(6)] | A (A: 0%) | 100 | 100 | 
11 | O=C(NC(=O)c1ccccc1Cl)Nc1ccc(OC(F)(F)F)cc1 [(B), reference compound] | D (D: 21% or more) |  |  | 0
12 | O=C(NC(=O)c1c(F)cccc1F)Nc1ccc(OC(F)(F)C(F)C(F)(F)F)cc1F (stereo not shown) [(7)] | A (A: 0%) | 100 | 100 | 
13 | O=C(NC(=O)c1c(F)cccc1F)Nc1ccc(Cl)cc1 [(A), reference compound] | D (D: 21% or more) |  |  | 13
14 | O=C(NC(=O)c1ccccc1Cl)Nc1ccc(OC(F)(F)C(F)OC(F)(F)C(F)(F)C(F)(F)F)cc1F (stereo not shown) [(10)] | A (A: 0%) | 100 | 100 | 

Reference: patent publication EP0337600A2, “Benzoylurea derivative, process for producing the same, insecticide containing the same, reaction intermediate of the same and process for producing the intermediate” (priority 1988, dated 1989)
